# Measurements from US8114594B2, “Crude biological derivatives competent for nucleic acid detection” (Applied Biosysyems, LLC, priority 2004, dated 2012).
# Tested on: not given
# Experiment: not given
# Settings: cited from earlier work
row,SMILES,pKa
1,"Cc1cc(C)c(C)c(C(=O)O)c1C [2,3,5,6-tetramethylbenzoic acid]",3.5
2,"Cc1cc(C)c(C(=O)O)c(C)c1 [2,4,6-trimethylbenzoic acid]",3.4
3,CC(C)(N)C(=O)O [2-amino-2-methylpropionic acid],2.4
4,CCC(C)C(N)C(=O)O (stereo not drawn) [2-amino-3-methylpentanoic acid],2.3
5,Nc1ccccc1S(=O)(=O)O [2-aminobenzenesulfonic acid],2.5
6,CCCC(N)C(=O)O (stereo not drawn) [2-aminopentanoic acid],2.3
7,CC(C)(C#N)C(=O)O [2-cyano-2-methylpropionic acid],2.4
8,CCC(CC)C(=O)O [2-ethylbutyric acid],4.8
9,O=C(O)c1ccco1 [2-furancarboxylic acid],3.2
10,O=C(O)c1c(O)ccc2ccccc12 [2-hydroxy-1-naphthoic acid],3.3
11,Nc1cccc(S(=O)(=O)O)c1 [3-aminobenzenesulfonic acid],3.7
12,O=C(O)c1cccc(Br)c1 [3-bromobenzoic acid],3.8
13,CC(C)(C)c1cccc(C(=O)O)c1 [3-tert-butylbenzoic acid],4.2
14,Nc1ccc(S(=O)(=O)O)cc1 [4-aminobenzenesulfonic acid],3.2
15,O=C(O)c1ccc([N+](=O)[O-])cc1 [4-nitrobenzoic acid],3.4
16,CC(=O)N[C@@H](C)C(=O)O [N-acetylalanine],3.7
17,CC(=O)NCC(=O)O [N-acetylglycine],3.7
18,C[C@H](NC(N)=O)C(=O)O [N-carbamoylalanine],3.9
19,CCC(=O)NCC(=O)O [N-propionylglycine],3.7
20,O=C(O)C#CCl [chloropropynoic acid],1.85
21,N#CCC(=O)O [cyanoacetic acid],2.5
22,CC[C@H](C)[C@H](N)C(=O)O [isoleucine],2.3
23,CC(C)C(C(=O)O)C(=O)O [isopropylmalonic acid],2.4
24,CC(=O)NCCC(=O)O [β-acetylaminopropionic acid],4.4

# Tested on: tissue plasminogen activator (t-PA)
# Experiment: Monitoring drug treatment: t-PA mRNA by one step real-time RT-PCR from HeLa cell lysate
# Type: cell-based, human
# Settings: lysate 40 cells/μl, PMA 1 nM, 24 hours
# Procedure: HeLa cells were seeded DME media with 10% FBS in each of three wells in a 12-well tissue culture plate (Nalge Nunc International, Cat. #150628) at 125,000 cells/well. After an overnight incubation, phorbol myristate acetate (PMA) was added to final concentrations of 10, 1 and 0 nM in the growth medium. The cells were incubated at 37° C. for 24 hours. The medium was removed and the cells washed with PBS. The cells were incubated with 0.05% trypsin in 0.53 mM EDTA for 10 minutes at 37° C. to detach the cells. Cells were counted and concentration was determined. Cells were centrifuged at 800×g for 5 minutes. The medium was removed and the cells were washed once with PBS. Each cell pellet was suspended in PBS to obtain a stock solution of 10000 cells/μl. A five-fold serial dilution of the stock solution with PBS was carried out to give 10000, 2000 and 400 cells/0.10 μl of each dilution was added to 90 μl of Buffer at room temperature such that the final cell concentrations in the lysate were 1000, 200 and 40 cells/μl. The samples were gently shaken at room temperature (˜21° C.) for 1 to 2 min. As in EXAMPLE 1, cell lysate of 30% of the final reaction volume was added to a one step real-time RT-PCR reaction with primers and TaqMan probe for tissue plasminogen activator (t-PA) and 18S rRNA (EXAMPLE 8). The t-PA primer and probe sequences were as follows: Forward primer, 5′-[…]-3′ (SEQ ID NO. 34); Reverse primer, 5′-[…]-3′ (SEQ ID NO. 35); TaqMan Probe: 5′-(FAM)-[…]-(TAMRA)-3′ (SEQ ID NO. 36).
row,SMILES,t-PA (fold increase compared to 0 nM PMA) [fold]
1,"CCCCCCCCCCCCCC(=O)O[C@@H]1[C@@H](C)[C@@]2(O)[C@@H](C=C(CO)C[C@]3(O)C(=O)C(C)=C[C@@H]23)[C@@H]2C(C)(C)[C@]12OC(C)=O [PMA, phorbol myristate acetate]",16

# Same assay, conditions: lysate 40 cells/μl, PMA 10 nM, 24 hours
row,SMILES,t-PA (fold increase compared to 0 nM PMA) [fold]
1,"CCCCCCCCCCCCCC(=O)O[C@@H]1[C@@H](C)[C@@]2(O)[C@@H](C=C(CO)C[C@]3(O)C(=O)C(C)=C[C@@H]23)[C@@H]2C(C)(C)[C@]12OC(C)=O [PMA, phorbol myristate acetate]",147

# Same assay, conditions: lysate 200 cells/μl, PMA 1 nM, 24 hours
row,SMILES,t-PA (fold increase compared to 0 nM PMA) [fold]
1,"CCCCCCCCCCCCCC(=O)O[C@@H]1[C@@H](C)[C@@]2(O)[C@@H](C=C(CO)C[C@]3(O)C(=O)C(C)=C[C@@H]23)[C@@H]2C(C)(C)[C@]12OC(C)=O [PMA, phorbol myristate acetate]",9

# Same assay, conditions: lysate 200 cells/μl, PMA 10 nM, 24 hours
row,SMILES,t-PA (fold increase compared to 0 nM PMA) [fold]
1,"CCCCCCCCCCCCCC(=O)O[C@@H]1[C@@H](C)[C@@]2(O)[C@@H](C=C(CO)C[C@]3(O)C(=O)C(C)=C[C@@H]23)[C@@H]2C(C)(C)[C@]12OC(C)=O [PMA, phorbol myristate acetate]",62

# Same assay, conditions: lysate 1000 cells/μl, PMA 1 nM, 24 hours
row,SMILES,t-PA (fold increase compared to 0 nM PMA) [fold]
1,"CCCCCCCCCCCCCC(=O)O[C@@H]1[C@@H](C)[C@@]2(O)[C@@H](C=C(CO)C[C@]3(O)C(=O)C(C)=C[C@@H]23)[C@@H]2C(C)(C)[C@]12OC(C)=O [PMA, phorbol myristate acetate]",8

# Same assay, conditions: lysate 1000 cells/μl, PMA 10 nM, 24 hours
row,SMILES,t-PA (fold increase compared to 0 nM PMA) [fold]
1,"CCCCCCCCCCCCCC(=O)O[C@@H]1[C@@H](C)[C@@]2(O)[C@@H](C=C(CO)C[C@]3(O)C(=O)C(C)=C[C@@H]23)[C@@H]2C(C)(C)[C@]12OC(C)=O [PMA, phorbol myristate acetate]",39
